Tested on: parental BaF3 cells
Test: cells
Conditions: Mus musculus, BaF3, 72 h
Method: Parental BaF3 cells (“BaF3”) were also tested as a normal, non-ALK-dependent cell control.

Compound: C[C@@H](Oc1cc(-c2cnn(C3CCNCC3)c2)cnc1N)c1c(Cl)ccc(F)c1Cl [PF-02341066]
- IC50: 1.46 µM

Reference: patent US9458508B2, “Methods and compositions for the diagnosis and treatment of cancer resistant to anaplastic lymphoma kinase (ALK) kinase inhibitors” (St. Jude Children's Research Hospital, priority 2010, dated 2016)
